Experimental findings from patent US11884676B2, “Substituted pyrimido[1,2-b]pyridazines as positive allosteric modulators of the muscarinic acetylcholine receptor M4” (Vanderbilt University, priority 2020, dated 2024) are described below.

Each structure is given as a SMILES string.

For the assay, the target named is T1, Human M4 (Homo sapiens, UniProt P08173).
T1 construct: expressed in transfected cells
T1 sequence (P08173 1-479): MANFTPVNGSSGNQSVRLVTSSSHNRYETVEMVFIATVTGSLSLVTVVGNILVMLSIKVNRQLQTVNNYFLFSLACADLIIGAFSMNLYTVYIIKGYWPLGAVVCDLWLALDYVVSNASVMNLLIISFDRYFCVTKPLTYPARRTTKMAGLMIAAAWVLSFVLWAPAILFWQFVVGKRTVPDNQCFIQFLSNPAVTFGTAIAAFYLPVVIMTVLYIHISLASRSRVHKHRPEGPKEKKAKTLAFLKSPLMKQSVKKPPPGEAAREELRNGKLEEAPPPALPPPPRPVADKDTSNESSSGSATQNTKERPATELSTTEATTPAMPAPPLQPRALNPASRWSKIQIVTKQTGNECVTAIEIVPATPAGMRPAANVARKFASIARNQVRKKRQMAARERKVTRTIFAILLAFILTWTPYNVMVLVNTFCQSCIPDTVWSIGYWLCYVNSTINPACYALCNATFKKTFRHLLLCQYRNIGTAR
The assay is described as follows: mAChR M4 cell-based functional assay (calcium flux, PAM mode). The following applies: hM4-Gqi5 CHO-K1 cells; for Emax at 30 µM: CHO-K1, % ACh maximum at 30 μM; for EC50: concentration-dependent increase in the EC20 acetylcholine response. The method, then: Human and rat M4 cDNAs, along with the chimeric G protein Gqi5, were transfected into Chinese hamster ovary (CHO-K1) cells purchased from the American Type Culture Collection using Lipofectamine2000. hM4-Gqi5 cells were grown in Ham's F-12 medium containing 10% heat-inactivated fetal bovine serum (FBS), 20 mM HEPES, 50 μg/mL G418 sulfate, and 500 μg/mL Hygromycin B. rM4-Gqi5 cells were grown in DMEM containing 10% heat-inactivated FBS, 20 mM HEPES, 400 μg/mL G418 sulfate, and 500 μg/mL Hygromycin B.
For high throughput measurement of agonist-evoked increases in intracellular calcium, CHO-K1 cells stably expressing muscarinic receptors were plated in growth medium lacking G418 and hygromycin at 15,000 cells/20 μL/well in Greiner 384-well black-walled, tissue culture (TC)-treated, clear-bottom plates (VWR). Cells were incubated overnight at 37° C. and 5% CO2. The next day, cells were washed using an ELX 405 (BioTek) with assay buffer; the final volume was then aspirated to 20 μL. Next, 20 μL of a 2.3 μM stock of Fluo-4/acetoxymethyl ester (Invitrogen, Carlsbad, CA), prepared as a 2.3 mM stock in DMSO and mixed in a 1:1 ratio with 10% (w/v) Pluronic F-127 and diluted in assay buffer, was added to the wells and the cell plates were incubated for 50 min at 37° C. and 5% CO2. Dye was removed by washing with the ELX 405 and the final volume was aspirated to 20 μL. Compound master plates were formatted in an 11 point concentration-response curve (CRC) format (1:3 dilutions) in 100% DMSO with a starting concentration of 10 mM using a BRAVO liquid handler (Agilent). Test compound CRCs were then transferred to daughter plates (240 nL) using the Echo acoustic plate reformatter (Labcyte, Sunnyvale, CA) and then diluted into assay buffer (40 μL) to a 2× stock using a Thermo Fisher Combi (Thermo Fisher Scientific, Waltham, MA).
Calcium flux was measured using the Functional Drug Screening System (FDSS) 6000 or 7000 (Hamamatsu Corporation, Tokyo, Japan) as an increase in the fluorescent static ratio. Compounds were applied to cells (20 μL, 2×) using the automated system of the FDSS at 2-4 seconds into the protocol and the data were collected at 1 Hz. At 144 seconds, 10 μL of an EC20 concentration of the muscarinic receptor agonist acetylcholine was added (5×), followed by the addition of 12 μL of an EC80 concentration of acetylcholine at the 230 second time point (5×). Agonist activity was analyzed as a concentration-dependent increase in calcium mobilization upon compound addition. Positive allosteric modulator activity was analyzed as a concentration-dependent increase in the EC20 acetylcholine response. Antagonist activity was analyzed as a concentration-dependent decrease in the EC80 acetylcholine response. Concentration-response curves were generated using a four-parameter logistical equation in XLFit curve fitting software (IDBS, Bridgewater, NJ) for Excel (Microsoft, Redmond, WA) or Prism (GraphPad Software, Inc., San Diego, CA).
Compounds were synthesized as described above. Activity (EC50 and Emax) was determined in the mAChR M4 cell-based functional assay as described above and the data are shown in Table 2. The compound number corresponds to the compound numbers used in Examples 1 to 11 and Tables 1.
On the technique in general: A change in cytosolic calcium serves as a functional read-out for many receptors and channels.

Broadly, the Emax is the size of the effect at its maximum, as opposed to the concentration needed. What is called EC50 is the concentration giving half of the maximal effect. Consider `Cc1cc2nccc(=O)n2nc1N1CC[C@@H](Oc2ccc3c(c2)OCCO3)[C@@H](C)C1` (single isomer, unassigned) [Compound 113, 7-((3R,4S) or (3S,4R))-4-(2,3-dihydrobenzo[b][1,4]dioxin-6-yl)oxy)-3-methylpiperidin-1-yl)-8-methyl-4H-pyrimido[1,2-b]pyridazin-4-one], for which the Emax at 30 µM amounted to 96% and the EC50 was found to be 0.11 µM.

Take `Cc1cc2nccc(=O)n2nc1N1CC[C@@H](Oc2ccc3c(c2)OCCO3)[C@H](C)C1` (single isomer, unassigned) [Compound 114, 7-((3R,4R) or (3S,4S))-4-((2,3-dihydrobenzo[b][1,4]dioxin-6-yl)oxy)-3-methylpiperidin-1-yl)-8-methyl-4H-pyrimido[1,2-b]pyridazin-4-one]: the Emax at 30 µM turned out to be 102% and the EC50 came out at 0.16 µM.

On to `Cc1cc2nccc(=O)n2nc1N1CC[C@H](Oc2ccc3c(c2)OCCO3)[C@@H](C)C1` (single isomer, unassigned) [Compound 115, 7-((3S,4S) or (3R, 4R))-4-((2,3-dihydrobenzo[b][1,4]dioxin-6-yl)oxy)-3-methylpiperidin-1-yl)-8-methyl-4H-pyrimido[1,2-b]pyridazin-4-one], for which the Emax at 30 µM is 78% and the EC50 is 1.56 µM.

Take `Cc1cc2nccc(=O)n2nc1N1CC[C@@H](Oc2ccc3c(c2)OCCO3)C[C@H]1C` (stereo in doubt) [Compound 106, 7-((2R,4R)-4-((2,3-dihydrobenzo[b][1,4]dioxin-6-yl)oxy)-2-methylpiperidin-1-yl)-8-methyl-4H-pyrimido[1,2-b]pyridazin-4-one]: the Emax at 30 µM came to 81% and the EC50 was 0.818 µM.

Regarding `Cc1cc2nccc(=O)n2nc1N1CC[C@H](Oc2ccc3c(c2)OCCO3)C[C@H]1C` (stereo in doubt) [Compound 107, 7-((2R,4S)-4-((2,3-dihydrobenzo[b][1,4]dioxin-6-yl)oxy)-2-methylpiperidin-1-yl)-8-methyl-4H-pyrimido[1,2-b]pyridazin-4-one], the Emax at 30 µM is 55%.

Take `[2H]C1([2H])Oc2ccc(OC3CCN(c4nn5c(=O)ccnc5cc4C)CC3)cc2OC1([2H])[2H]` [Compound 1, 7-(4-((2,3-Dihydrobenzo[b][1,4]dioxin-6-yl-2,2,3,3-d4)oxy)piperidin-1-yl)-8-methyl-4H-pyrimido[1,2-b]pyridazin-4-one]: the Emax at 30 µM turned out to be 91% and the EC50 is 0.13 µM.

As for `[2H]C1([2H])Oc2ccc(OC3CCN(c4nn5c(=O)ccnc5c(C)c4C)CC3)cc2OC1([2H])[2H]` [Compound 2, 7-(4-((2,3-Dihydrobenzo[b][1,4]dioxin-6-yl-2,2,3,3-d4)oxy)piperidin-1-yl)-8,9-dimethyl-4H-pyrimido[1,2-b]pyridazin-4-one], the Emax at 30 µM amounted to 100% and the EC50 amounted to 0.026 µM.

Regarding `[2H]C1([2H])Oc2ccc(OC3CCN(c4nn5c(=O)cc(C)nc5cc4C)CC3)cc2OC1([2H])[2H]` [Compound 3, 7-(4-((2,3-Dihydrobenzo[b][1,4]dioxin-6-yl-2,2,3,3-d4)oxy)piperidin-1-yl)-2,8-dimethyl-4H-pyrimido[1,2-b]pyridazin-4-one], the Emax at 30 µM was 86% and the EC50 turned out to be 0.03 µM.

Regarding `[2H]C1([2H])Oc2ccc(OC3CCN(c4nn5c(=O)c(C)c(C)nc5cc4C)CC3)cc2OC1([2H])[2H]` [Compound 4, 7-(4-((2,3-Dihydrobenzo[b][1,4]dioxin-6-yl-2,2,3,3-d4)oxy)piperidin-1-yl)-2,3,8-trimethyl-4H-pyrimido[1,2-b]pyridazin-4-one], the Emax at 30 µM was determined as 90% and the EC50 worked out at 0.036 µM.

As for `[2H]C1([2H])Oc2ccc(OC3CCN(c4nn5c(=O)cc(C)nc5c(C)c4C)CC3)cc2OC1([2H])[2H]` [Compound 5, 7-(4-((2,3-Dihydrobenzo[b][1,4]dioxin-6-yl-2,2,3,3-d4)oxy)piperidin-1-yl)-2,8,9-trimethyl-4H-pyrimido[1,2-b]pyridazin-4-one], the Emax at 30 µM was determined as 81% and the EC50 turned out to be 0.036 µM.

`[2H]C1([2H])Oc2ccc(OC3CCN(c4nn5c(=O)cc(C(F)(F)F)nc5cc4C)CC3)cc2OC1([2H])[2H]` [Compound 6, 7-(4-((2,3-Dihydrobenzo[b][1,4]dioxin-6-yl-2,2,3,3-d4)oxy)piperidin-1-yl)-8-methyl-2-(trifluoromethyl)-4H-pyrimido[1,2-b]pyridazin-4-one]: the maximal effect (Emax) at 30 µM was 91% and the EC50 was determined as 0.016 µM.

As for `[2H]C1([2H])Oc2ccc(OC3CCN(c4nn5c(=O)cc(C(F)(F)F)nc5c(C)c4C)CC3)cc2OC1([2H])[2H]` [Compound 7, 7-(4-((2,3-Dihydrobenzo[b][1,4]dioxin-6-yl-2,2,3,3-d4)oxy)piperidin-1-yl)-8,9-dimethyl-2-(trifluoromethyl)-4H-pyrimido[1,2-b]pyridazin-4-one], the Emax at 30 µM worked out at 93% and the EC50 came out at 0.07 µM.

As for `[2H]C1([2H])Oc2ccc(OC3CCN(c4nn5c(=O)cc(C(F)F)nc5cc4C)CC3)cc2OC1([2H])[2H]` [Compound 8, 2-(Difluoromethyl)-7-(4-((2,3-dihydrobenzo[b][1,4]dioxin-6-yl-2,2,3,3-d4)oxy)piperidin-1-yl)-8-methyl-4H-pyrimido[1,2-b]pyridazin-4-one], the Emax at 30 µM amounted to 76% and the EC50 stood at 0.019 µM.

Turning to `[2H]C1([2H])Oc2ccc(OC3CCN(c4nn5c(=O)cc(C(F)F)nc5c(C)c4C)CC3)cc2OC1([2H])[2H]` [Compound 9, 2-(Difluoromethyl)-7-(4-((2,3-dihydrobenzo[b][1,4]dioxin-6-yl-2,2,3,3-d4)oxy)piperidin-1-yl)-8,9-dimethyl-4H-pyrimido[1,2-b]pyridazin-4-one], the Emax at 30 µM was 96% and the EC50 is 0.028 µM.

As for `[2H]C1([2H])Oc2ccc(OC3CCN(c4nn5c(=O)cc(C6CC6)nc5cc4C)CC3)cc2OC1([2H])[2H]` [Compound 10, 2-Cyclopropyl-7-(4-((2,3-dihydrobenzo[b][1,4]dioxin-6-yl-2,2,3,3-d4)oxy)piperidin-1-yl)-8-methyl-4H-pyrimido[1,2-b]pyridazin-4-one], the maximal effect (Emax) at 30 µM amounted to 73% and the EC50 is 0.087 µM.

`CCc1cc(=O)n2nc(N3CCC(Oc4ccc5c(c4)OCCO5)CC3)c(C)c(C)c2n1` [Compound 11, 7-(4-((2,3-Dihydrobenzo[b][1,4]dioxin-6-yl-2,2,3,3-d4)oxy)piperidin-1-yl)-2-ethyl-8,9-dimethyl-4H-pyrimido[1,2-b]pyridazin-4-one]: the Emax at 30 µM stood at 99% and the EC50 was determined as 0.049 µM.

With `Cc1c(N2CCC(Oc3ccc4c(c3)OCCO4)CC2)nn2c(=O)cc(C(C)C)nc2c1C` [Compound 12, 7-(4-((2,3-Dihydrobenzo[b][1,4]dioxin-6-yl)oxy)piperidin-1-yl)-2-isopropyl-8,9-dimethyl-4H-pyrimido[1,2-b]pyridazin-4-one], the Emax at 30 µM is 103% and the EC50 was 0.059 µM.
